How the values were obtained:
[1] = molecular target: T1, full length human TREX1 (Homo sapiens, UniProt Q9NSU2); assay: TREX1 Biochemical Assay (fluorescence, dsDNA substrate degradation); conditions: 150 pM TREX1, 60 nM dsDNA substrate, 25 minutes at room temperature
T1 construct: N-terminally His-Tev tagged full length human TREX1; made in house; host or cells: E. coli
T1 sequence (Q9NSU2 1-314): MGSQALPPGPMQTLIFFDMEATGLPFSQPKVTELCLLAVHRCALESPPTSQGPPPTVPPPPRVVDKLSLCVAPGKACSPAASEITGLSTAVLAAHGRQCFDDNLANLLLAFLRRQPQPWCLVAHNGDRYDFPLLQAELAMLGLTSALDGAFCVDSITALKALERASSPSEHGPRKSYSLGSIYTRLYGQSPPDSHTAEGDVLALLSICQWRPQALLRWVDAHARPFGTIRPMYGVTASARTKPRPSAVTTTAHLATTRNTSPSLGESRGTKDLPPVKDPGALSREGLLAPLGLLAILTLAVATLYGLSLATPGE
Experimental: Degradation of the dsDNA liberates free fluorophore to produce a fluorescent signal. Specifically, 7.5 μL of N-terminally His-Tev tagged full length human TREX1 (expressed in E. coli and purified in house) in reaction buffer (50 mM Tris (pH 7.4), 150 mM NaCl, 2 mM DTT, 0.1 mg/mL BSA, 0.01% (v/v) Tween-20 and 100 mM MgCl2) was added to a 384-well Black ProxiPlate Plus (Perkin Elmer) which already contained compound (150 nL) at varying concentrations as a 10 point dose-response in DMSO. To this was added 7.5 μL of dsDNA substrate (Strand A: 5′ TEX615/GCT AGG CAG 3′; Strand B: 5′ CTG CCT AGC/IAbRQSp (Integrated DNA Technologies)) in reaction buffer. Final concentrations were 150 pM TREX1, 60 nM dsDNA substrate in reaction buffer with 1.0% DMSO (v/v). After 25 minutes at room temperature, reactions were quenched by the addition of 5 μL of stop buffer (same as reaction buffer plus 200 mM EDTA). Final concentrations in the quenched reaction were 112.5 pM TREX1, 45 nM DNA and 50 mM EDTA in a volume of 20 μL. After a 5-minute incubation at room temperature, plates were read in a laser sourced Envision (Perkin-Elmer), measuring fluorescence at 615 nm following excitation w/570 nm light. IC50 values were calculated by comparing the measured fluorescence at 615 nm ratio relative to control wells pre-quenched w/stop buffer (100% inhibition) and no inhibitor (0% inhibition) controls as using non-linear least square four parameter fits and either Genedata or GraphPad Prism (GraphPad Software, Inc.).

[2] = molecular target: T2, human TREX2 (residues M44-A279) (Homo sapiens, UniProt Q9BQ50); assay: TREX2 Biochemical Assay (fluorescence, dsDNA substrate degradation); conditions: 2.5 nM TREX2, 60 nM dsDNA substrate, 25 minutes at room temperature
T2 construct: human TREX2 (residues M44-A279, expressed in E. coli); made in house; host or cells: E. coli
T2 sequence (Q9BQ50 44-279 isoform Q9BQ50-1): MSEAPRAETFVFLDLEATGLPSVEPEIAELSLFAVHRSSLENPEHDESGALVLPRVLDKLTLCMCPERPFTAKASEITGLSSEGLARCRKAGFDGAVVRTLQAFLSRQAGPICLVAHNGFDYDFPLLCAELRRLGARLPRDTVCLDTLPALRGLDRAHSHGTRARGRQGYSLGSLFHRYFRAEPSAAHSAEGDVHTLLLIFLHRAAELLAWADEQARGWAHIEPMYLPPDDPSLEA
Experimental: Degradation of the dsDNA liberates free fluorophore to produce a fluorescent signal. Specifically, 7.5 μL of N-terminally His-Tev tagged human TREX2 (residues M44-A279, expressed in E. coli and purified in house) in reaction buffer (50 mM Tris (pH 7.4), 150 mM NaCl, 2 mM DTT, 0.1 mg/mL BSA, 0.01% (v/v) Tween-20 and 100 mM MgCl2) was added to a 384-well Black ProxiPlate Plus (Perkin Elmer) which already contained compound (150 nL) at varying concentrations as a 10 point dose-response in DMSO. To this was added 7.5 μL of dsDNA substrate (Strand A: 5′ TEX615/GCT AGG CAG 3′; Strand B: 5′ CTG CCT AGC/IAbRQSp (IDT)) in reaction buffer. Final concentrations were 2.5 nM TREX2, 60 nM dsDNA substrate in reaction buffer with 1.0% DMSO (v/v). After 25 minutes at room temperature, reactions were quenched by the addition of 5 μL of stop buffer (same as reaction buffer plus 200 mM EDTA). Final concentrations in the quenched reaction mixture were […] TREX2, 45 nM DNA and 50 mM EDTA in a volume of 20 μL. After a 5-minute incubation at room temperature, plates were read in a laser sourced Envision (Perkin-Elmer), measuring fluorescence at 615 nm following excitation w/570 nm light. IC50 values were calculated by comparing the measured fluorescence at 615 nm ratio relative to control wells pre-quenched w/stop buffer (100% inhibition) and no inhibitor (0% inhibition) controls as using non-linear least square four parameter fits and either Genedata or GraphPad Prism (GraphPad Software, Inc.).

| IC50 [1] [nM] | IC50 [2] [nM] | Structure (SMILES) |
| --- | --- | --- |
| 100 to 1000 | < 1000 | CN(c1nc(C(=O)Nc2cc(F)cc(F)c2)c(O)c(=O)n1C)C(c1ccccc1)c1ccccc1 [Example 21, 2-(benzhydryl(methyl)amino)-N-(3,5-difluorophenyl)-5-hydroxy-1-methyl-6-oxo-1,6-dihydropyrimidine-4-carboxamide] |
| < 100 | < 1000 | CN(c1nc(C(=O)Nc2cccc(F)c2F)c(O)c(=O)n1C)C(c1ccccc1)c1ccccc1 [Example 22, 2-(benzhydryl(methyl)amino)-N-(2,3-difluorophenyl)-5-hydroxy-1-methyl-6-oxo-1,6-dihydropyrimidine-4-carboxamide] |
| 1000 to 10000 | 1000 to 10000 | CN(c1nc(C(=O)Nc2cc(F)ccn2)c(O)c(=O)n1C)C(c1ccccc1)c1ccccc1 [Example 23, 2-(benzhydryl(methyl)amino)-N-(4-fluoropyridin-2-yl)-5-hydroxy-1-methyl-6-oxo-1,6-dihydropyrimidine-4-carboxamide] |
| 100 to 1000 | 1000 to 10000 | CN(c1nc(C(=O)Nc2cncc(F)c2)c(O)c(=O)n1C)C(c1ccccc1)c1ccccc1 [Example 24, 2-(benzhydryl(methyl)amino)-N-(5-fluoropyridin-3-yl)-5-hydroxy-1-methyl-6-oxo-1,6-dihydropyrimidine-4-carboxamide] |
| 100 to 1000 | < 1000 | CN(c1nc(C(=O)Nc2ccccn2)c(O)c(=O)n1C)C(c1ccccc1)c1ccccc1 [Example 25, 2-(benzhydryl(methyl)amino)-5-hydroxy-1-methyl-6-oxo-N-(pyridin-2-yl)-1,6-dihydropyrimidine-4-carboxamide] |
| 1000 to 10000 | 1000 to 10000 | CN(c1nc(C(=O)Nc2cncnc2)c(O)c(=O)n1C)C(c1ccccc1)c1ccccc1 [Example 26, 2-(benzhydryl(methyl)amino)-5-hydroxy-1-methyl-6-oxo-N-(pyrimidin-5-yl)-1,6-dihydropyrimidine-4-carboxamide] |
| > 10000 | 10000 to 100000 | CN(c1nc(C(=O)Nc2cccc(C(F)(F)F)c2)c(O)c(=O)n1C)C(c1ccccc1)c1ccccc1 [Example 27, 2-(benzhydryl(methyl)amino)-5-hydroxy-1-methyl-6-oxo-N-(3-(trifluoromethyl)phenyl)-1,6-dihydropyrimidine-4-carboxamide] |
| > 10000 | 10000 to 100000 | CN(c1nc(C(=O)Nc2ccc(C(F)(F)F)cc2)c(O)c(=O)n1C)C(c1ccccc1)c1ccccc1 [Example 28, 2-(benzhydryl(methyl)amino)-5-hydroxy-1-methyl-6-oxo-N-(4-(trifluoromethyl)phenyl)-1,6-dihydropyrimidine-4-carboxamide] |
| 100 to 1000 | < 1000 | CN(c1nc(C(=O)Nc2ccc(F)cc2)c(O)c(=O)n1C)[C@@H](c1ccccc1)c1ccccc1Cl [Example 30, (S)-2-(((2-chlorophenyl)(phenyl)methyl)(methyl)amino)-N-(4-fluorophenyl)-5-hydroxy-1-methyl-6-oxo-1,6-dihydropyrimidine-4-carboxamide] |
| 100 to 1000 | 1000 to 10000 | CN(c1nc(C(=O)Nc2cncs2)c(O)c(=O)n1C)C(c1ccccc1)c1ccccc1 [Example 31, 2-(benzhydryl(methyl)amino)-5-hydroxy-1-methyl-6-oxo-N-(thiazol-5-yl)-1,6-dihydropyrimidine-4-carboxamide] |
| < 100 | 1000 to 10000 | Cc1nocc1NC(=O)c1nc(N(C)C(c2ccccc2)c2ccccc2)n(C)c(=O)c1O [Example 32, 2-(benzhydryl(methyl)amino)-5-hydroxy-1-methyl-N-(3-methylisoxazol-4-yl)-6-oxo-1,6-dihydropyrimidine-4-carboxamide] |
| 100 to 1000 | 10000 to 100000 | Cc1noc(C)c1NC(=O)c1nc(N(C)C(c2ccccc2)c2ccccc2)n(C)c(=O)c1O [Example 33, 2-(benzhydryl(methyl)amino)-N-(3,5-dimethylisoxazol-4-yl)-5-hydroxy-1-methyl-6-oxo-1,6-dihydropyrimidine-4-carboxamide] |
| 1000 to 10000 | 1000 to 10000 | CN(c1nc(C(=O)Nc2cnnn2C)c(O)c(=O)n1C)C(c1ccccc1)c1ccccc1 [Example 34, 2-(benzhydryl(methyl)amino)-5-hydroxy-1-methyl-N-(1-methyl-1H-1,2,3-triazol-5-yl)-6-oxo-1,6-dihydropyrimidine-4-carboxamide] |
| 1000 to 10000 | 10000 to 100000 | CN(c1nc(C(=O)Nc2ccnn2C)c(O)c(=O)n1C)C(c1ccccc1)c1ccccc1 [Example 35, 2-(benzhydryl(methyl)amino)-5-hydroxy-1-methyl-N-(1-methyl-1H-pyrazol-5-yl)-6-oxo-1,6-dihydropyrimidine-4-carboxamide] |
| 100 to 1000 | 1000 to 10000 | Cc1oncc1NC(=O)c1nc(N(C)C(c2ccccc2)c2ccccc2)n(C)c(=O)c1O [Example 36, 2-(benzhydryl(methyl)amino)-5-hydroxy-1-methyl-N-(5-methylisoxazol-4-yl)-6-oxo-1,6-dihydropyrimidine-4-carboxamide] |
| 1000 to 10000 | 10000 to 100000 | Cc1onc(NC(=O)c2nc(N(C)C(c3ccccc3)c3ccccc3)n(C)c(=O)c2O)c1C [Example 37, 2-(benzhydryl(methyl)amino)-N-(4,5-dimethylisoxazol-3-yl)-5-hydroxy-1-methyl-6-oxo-1,6-dihydropyrimidine-4-carboxamide] |
| 1000 to 10000 | 10000 to 100000 | CN(c1nc(C(=O)Nc2nnco2)c(O)c(=O)n1C)C(c1ccccc1)c1ccccc1 [Example 38, 2-(benzhydryl(methyl)amino)-5-hydroxy-1-methyl-N-(1,3,4-oxadiazol-2-yl)-6-oxo-1,6-dihydropyrimidine-4-carboxamide] |
| 100 to 1000 | 10000 to 100000 | CN(c1nc(C(=O)Nc2ccon2)c(O)c(=O)n1C)C(c1ccccc1)c1ccccc1 [Example 39, 2-(benzhydryl(methyl)amino)-5-hydroxy-N-(isoxazol-3-yl)-1-methyl-6-oxo-1,6-dihydropyrimidine-4-carboxamide] |

— patent US20230167070A1, “MODULATORS OF TREX1” (Constellation Pharmaceuticals, Inc., priority 2020, published 2023)
